In patent US10004786B2 (Zealand Pharma A/S, priority 2009, dated 2018):
Numbered stars: 1 amine (or outer) side, 2 acyl side, 3 side chain; on linkers, the order of the positions; unused ones are H or OH. Square brackets hold non-standard residues; d marks the D form. Side chains are listed from the residue outwards. Peptide text beside a SMILES is read from it. * marks the point of attachment. γGlu = O=C(O)[C@H](CCC(=O)[*:2])N[*:1]; Palmitoyl = CCCCCCCCCCCCCCCC(=O)*; Aib = CC(C)(N)C(=O)O

What was measured:
human GLP-1R = biological target: T1, human GLP-1R (Homo sapiens, UniProt P43220); experiment: GLP-1 receptor efficacy assay (cAMP formation in HEK293 cells expressing human GLP-1R); format: cell-based; conditions: Table 1a, HEK293 cells expressing hGLP-1R
T1 construct: expressed in transfected cells
Procedure: (§1) The 5′-end primers additionally encoded a near Kozak consensus sequence to ensure efficient translation.
(§2) 48 hr after transfection cells were seeded for limited dilution cloning and selected with 1 mg/ml G418 in the culture medium.
(§3) On the day of analysis, growth medium was removed and the cells washed once with 200 μl Tyrode buffer. […] The reaction was stopped by addition of 25 μl 0.5 M HCl and incubated on ice for 60 min. The cAMP content was estimated using the FlashPlate® cAMP kit from Perkin-Elmer.
(§4) Efficacy of the GluGLP-1 agonists were estimated by exposing cells expressing hGlucagonR and hGLP-1R to the listed acylated compounds at increasing concentrations and measuring the formed cAMP as described in Methods.

human Glucagon-R = biological target: T2, human Glucagon-R (Homo sapiens, UniProt P47871); experiment: Glucagon receptor efficacy assay (cAMP formation in HEK293 cells expressing human Glucagon-R); format: cell-based; conditions: Table 1a, HEK293 cells expressing hGlucagonR, read-out: EC50 (nM) GluR
T2 construct: expressed in transfected cells
Procedure: as §1, §2, §3, §4

T1 sequence (P43220 24-463): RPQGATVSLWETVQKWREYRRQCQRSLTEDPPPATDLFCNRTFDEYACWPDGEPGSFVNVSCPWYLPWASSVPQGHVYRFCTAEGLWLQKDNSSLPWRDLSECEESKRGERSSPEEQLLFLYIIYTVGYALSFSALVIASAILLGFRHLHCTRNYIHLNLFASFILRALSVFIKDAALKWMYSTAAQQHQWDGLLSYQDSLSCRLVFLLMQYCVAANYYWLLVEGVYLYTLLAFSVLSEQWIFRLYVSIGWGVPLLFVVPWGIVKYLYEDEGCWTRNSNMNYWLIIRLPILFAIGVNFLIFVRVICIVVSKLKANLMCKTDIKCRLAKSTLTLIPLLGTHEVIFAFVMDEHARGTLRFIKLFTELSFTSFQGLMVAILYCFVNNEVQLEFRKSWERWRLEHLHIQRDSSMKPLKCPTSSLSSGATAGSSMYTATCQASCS
T2 sequence (P47871 26-477): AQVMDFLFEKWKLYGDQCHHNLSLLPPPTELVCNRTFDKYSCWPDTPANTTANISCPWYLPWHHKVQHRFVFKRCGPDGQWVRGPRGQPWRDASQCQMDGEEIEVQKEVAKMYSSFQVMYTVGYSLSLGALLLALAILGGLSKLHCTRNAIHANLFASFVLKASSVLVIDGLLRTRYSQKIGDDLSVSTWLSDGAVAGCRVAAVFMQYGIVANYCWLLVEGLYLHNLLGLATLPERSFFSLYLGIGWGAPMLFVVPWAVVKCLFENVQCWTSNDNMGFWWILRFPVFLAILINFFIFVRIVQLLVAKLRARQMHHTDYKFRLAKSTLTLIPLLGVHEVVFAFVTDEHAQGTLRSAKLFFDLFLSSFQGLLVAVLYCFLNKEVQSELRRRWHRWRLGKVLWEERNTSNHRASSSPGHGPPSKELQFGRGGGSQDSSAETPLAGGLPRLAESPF

EC50 (human GLP-1R) [nM]	EC50 (human Glucagon-R) [nM]	SMILES
0.14	–	CCCCCCCCCCCCCCCC(=O)NCCCC[C@H](NC(=O)[C@H](CO)NC(=O)[C@H](CC(=O)O)NC(=O)[C@H](CC(C)C)NC(=O)[C@H](Cc1ccc(O)cc1)NC(=O)[C@H](CCCCN)NC(=O)[C@H](CO)NC(=O)[C@H](Cc1ccc(O)cc1)NC(=O)[C@H](CC(=O)O)NC(=O)[C@H](CO)NC(=O)[C@@H](NC(=O)[C@H](Cc1ccccc1)NC(=O)[C@@H](NC(=O)CNC(=O)[C@H](CCC(N)=O)NC(=O)C(C)(C)NC(=O)[C@@H](N)Cc1c[nH]cn1)[C@@H](C)O)[C@@H](C)O)C(=O)N[C@@H](C)C(=O)N[C@@H](C)C(=O)N[C@@H](Cc1c[nH]cn1)C(=O)N[C@@H](CC(=O)O)C(=O)N[C@@H](Cc1ccccc1)C(=O)N[C@H](C(=O)N[C@@H](CCC(=O)O)C(=O)N[C@@H](Cc1c[nH]c2ccccc12)C(=O)N[C@@H](CC(C)C)C(=O)N[C@@H](CC(C)C)C(=O)N[C@@H](CO)C(=O)N[C@@H](C)C(N)=O)C(C)C [Compound 23]
0.2	0.18	CCCCCCCCCCCCCCCC(=O)N[C@@H](CCC(=O)NCCCC[C@H](NC(=O)[C@H](CCC(=O)O)NC(=O)[C@H](CC(=O)O)NC(=O)[C@H](CC(C)C)NC(=O)[C@H](Cc1ccc(O)cc1)NC(=O)[C@H](CCCCN)NC(=O)[C@H](CO)NC(=O)[C@H](Cc1ccc(O)cc1)NC(=O)[C@H](CC(=O)O)NC(=O)[C@H](CO)NC(=O)[C@@H](NC(=O)[C@H](Cc1ccccc1)NC(=O)[C@@H](NC(=O)CNC(=O)[C@H](CCC(N)=O)NC(=O)C(C)(C)NC(=O)[C@@H](N)Cc1c[nH]cn1)[C@@H](C)O)[C@@H](C)O)C(=O)N[C@@H](C)C(=O)N[C@@H](C)C(=O)N[C@@H](Cc1c[nH]cn1)C(=O)N[C@@H](CC(=O)O)C(=O)N[C@@H](Cc1ccccc1)C(=O)N[C@H](C(=O)N[C@@H](CCC(=O)O)C(=O)N[C@@H](Cc1c[nH]c2ccccc12)C(=O)N[C@@H](CC(C)C)C(=O)N[C@@H](CC(C)C)C(=O)N[C@@H](CO)C(=O)N[C@@H](C)C(N)=O)C(C)C)C(=O)O [Compound 40] (H-H[Aib]QGTFTSDYSKYLDEK([γGlu-Palmitoyl])AAHDFVEWLLSA-NH2)
